The source of these data is patent EP0107988A2, “Imidazo (1,2-a)quinolines, their salts, their preparation, their use as medicaments and compositions containing them” (ROUSSEL-UCLAF, priority 1982, dated 1984).

Each structure is given as a SMILES string.

The target of the test is récepteurs des benzodiazépines. Put plainly: Benzodiazepine receptor affinity: [3H]flunitrazepam binding, modified method of Squires and Braestrup. On the set-up: species or system rats. The following applies: concentration inhibiting by 50 % the specific binding of 0,6 nanomoles (3H) flunitrazépam; rat forebrain membrane preparations; read-out: CI50 (the source's name). From the text: L'affinité des composés pour les récepteurs des benzodiazépines a été évaluée en utilisant un radioligand/^3H/flunitra- zépam et la méthode de Squires et Braestrup (Nature, 1977, 266,732) modifiée.
Les valeurs ci-dessus sont les concentrations nanomolaires du produit testé qui inhibent dans une proportion de 50 % la liaison spécifique de 0,6 nanomoles (^3H) flunitrazépam tant de préparations de membranes de cerveaux antérieurs de rats (CI50) nanomoles.
As to `CCc1ccc2c(c1)c(OC)cc1nc(C(OC(C)=O)c3ccccc3)cn12` (stereo not shown) [Exemple 1], the IC50 was 5000 nM.
For `CCc1ccc2c(c1)c(OC)cc1nc(C(=O)c3ccccc3)c(Br)n12` [Exemple 2, (1-bromo 7-éthyl 5-méthoxyimidazo/1,2-a/quinoléin-2-yl)phénylméthanone] the value was 3200 nM.
For `CCc1ccc2c(c1)c(OC)cc1nc(C(=O)c3ccccc3)c(Cl)n12` [Exemple 3, (1-chloro 7-éthyl 5-méthoxyimidazo/1,2-a/quinoléin-2-yl)phénylméthanone] the value was 975 nM.
Next, `CCc1ccc2c(c1)c(O)cc1nc(C(=O)c3ccccc3)cn12` [Exemple 4, 2-benzoyl 7-éthylimidazo/1,2-a/quinoléin-501]: 430 nM; `CCc1ccc2c(c1)c(OC)cc1nc(C(C)(O)c3ccccc3)cn12` (stereo not shown) [Exemple 5, 1-(7-éthyl 5-méthoxyimidazo/1,2-a/quinoléin-2-yl) 1-phényléthanol]: 8000 nM.
Take `CCc1ccc2c(c1)c(OC(C)=O)cc1nc(C(=O)c3ccccc3)cn12` [Exemple 6, Acétatede 2-benzoyl 7-éthylimidazo/1,2-a/quinoléin-2-vle]: the IC50 is 395 nM.
In the case of `C=C(c1ccccc1)c1cn2c(cc(OC)c3cc(CC)ccc32)n1` [Exemple 7, Chlorhydratede 7-éthyl 5-méthoxy 2-(1-phénylvinyl) imidazo/1,2-a/quinoléine], the IC50 stood at 120 nM.
Next, `CCc1ccc2c(c1)c(OC)c(C)c1nc(C(=O)c3ccccc3)cn12` [Exemple 8, (7-éthyl 5-méthoxy 4-méthylimidazo/1,2-a/quinoléin-2-yl)phénylméthanone]: 7 nM; `CCc1ccc2c(c1)c(C)cc1nc(C(=O)c3ccccc3)cn12` [Exemple 9]: 250 nM; `CCc1ccc2c(c1)c(OC)c(CC)c1nc(C(=O)c3ccccc3)cn12` [Exemple 10, (4,7-diéthyl 5-méthoxyimidazo/1,2-a/quinoléin-2-yl) phénylméthanone]: 135 nM.
